This is an account of results in patent US10000484B2, “Inhibitors of the renal outer medullary potassim channel” (MERCK SHARP & DOHME CORP., priority 2013, dated 2018).

One experiment deals with T1, hROMK (hKir1.1) (Homo sapiens, UniProt P48048).
T1 construct: expressed in transfected cells
T1 sequence (P48048 1-391): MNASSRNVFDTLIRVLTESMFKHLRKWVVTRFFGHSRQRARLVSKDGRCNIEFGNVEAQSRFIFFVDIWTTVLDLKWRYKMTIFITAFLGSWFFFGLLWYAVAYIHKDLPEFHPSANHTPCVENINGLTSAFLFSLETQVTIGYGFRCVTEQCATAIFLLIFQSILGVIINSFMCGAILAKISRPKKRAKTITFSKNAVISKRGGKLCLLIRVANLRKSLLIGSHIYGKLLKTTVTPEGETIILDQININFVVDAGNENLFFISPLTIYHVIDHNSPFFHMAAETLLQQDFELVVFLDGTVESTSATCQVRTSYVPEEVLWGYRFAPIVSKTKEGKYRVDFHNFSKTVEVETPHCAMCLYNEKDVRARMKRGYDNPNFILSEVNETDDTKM
Nature of the experiment: Thallium Flux Assay (ROMK channel functional thallium flux assay, FLIPR-Tetra). The conditions noted are these: HEK293 cells stably expressing hROMK; 30 min incubation with compound. Type of experiment: cell-based. The protocol:
The following Thallium Flux Assay was performed on each of the final product compounds in the Examples. When the final product of an Example was an HCl salt, the salt was run in the Assay.
HEK293 cells stably expressing hROMK (hKir1.1) were grown at 37° C. in a 10% CO2 humidified incubator in complete growth media: Dulbecco's Modified Eagle Medium supplemented with non-essential amino acids, Penicillin/Streptomycin/Glutamine, G418 and FBS. At >80% confluency, aspirate the media from the flask and rinse with 10 mL Calcium/Magnesium-free PBS. Add 5 mL of 1× trypsin (prepared in Ca/Mg Free PBS) to T-225 flask and return flask to 37° C./CO2 incubator for 2-3 minutes. To dislodge the cell, gently bang the side of the flask with your hand. Triturate the cells completely and then transfer the cells to 25 mL complete media. Centrifuge at 1,500 rpm for 6 min followed by resuspension in complete growth media and determine cell concentration. For typical re-seeding, 4E6 cells/T-225 flask will attain >80% confluency in 4 days. Under ideal growth conditions and appropriate tissue culture practices, this cell line is stable for 40-45 passages.
FluxOR Kit Components (Invitrogen F10017)
• FluxOR™ Reagent (Component A) • FluxOR™ Assay Buffer (Component B)—10× Concentrate • PowerLoad™ Concentrate (Component C)—100× Concentrate • Probenecid (Component D)—Lyophilized sample is kept at −20° C. Water soluble, 100× after solubilization in 1 mL water. Store at 4° C. • FluxOR™ Chloride-free Buffer (Component E)—5× Concentrate • Potassium sulfate (K2SO4) Concentrate (Component F)—125 mM in water. Store at 4° C. • Thallium sulfate (Tl2SO4) Concentrate (Component G)—50 mM in water. Store at 4° C. • DMSO (dimethyl sulfoxide, Component H)—1 mL (100%) Reagent Preparation: FluxOR Working Solutions • 1000× FluxOR™ Reagent: Reconstitute a vial of component A in 100 μl DMSO; Mix well; Store 10 μl aliquots at −20° C. • 1× FluxOR™ Assay Buffer: Dilute Component B 10-fold with water; Adjust pH to 7.4 with Hepes/NaOH; Filter and store at 4° C. • Probenecid/Assay Buffer: 100 mL of 1× FluxOR™ Assay Buffer; 1 mL of reconstituted component D; Store at 4° C. • Loading Buffer (per microplate): 10 μl 1000× FluxOR™ Reagent; 100 μl component C; 10 mL Probenecid/Assay Buffer • Compound Buffer (per microplate): 20 mL Probenecid/Assay Buffer; 0.3 mM ouabain (10 mM ouabain in water can be stored in amber bottle/aluminum foil at room temperature); Test compound • 1× FluxOR™ Chloride-Free Buffer: Prepare 1× working solution in water. Can be stored at room temperature • Stimulant Buffer (prepared at 5× final concentration in 1× FluxOR™ Chloride-Free Buffer): 7.5 mM Thallium sulfate and 0.75 mM Potassium sulfate (to give a final assay concentration of 3 mM Thallium/0.3 mM Potassium). Store at 4° C. when not in use. Assay Protocol—
The ROMK channel functional thallium flux assay is performed in 384 wells, using the FLIPR-Tetra instrument. HEK-hKir1.1 cells are seeded in Poly-D-Lysine microplates and kept in a 37° C.-10% CO2 incubator overnight. On the day of the experiment, the growth media is replaced with the FluxOR™ reagent loading buffer and incubated, protected from light, at ambient temperature (23-25° C.) for 90 min. The loading buffer is replaced with assay buffer±test compound followed by 30 min incubation at ambient temperature, where the Thallium/Potassium stimulant is added to the microplate.
1. Seed HEK-hKir1.1 cells (50 μl at 20,000 cells/well) in 384-well PDL coated Microplates
2. Allow cells to adhere overnight in humidified 37° C./10% CO2 incubator
3. Completely remove cell growth media from microplate and replace with 25 μl loading buffer
4. Incubate Microplate at room temperature, protected form light, for 90 min
5. Remove loading buffer and replace with 25 μl 1× Assay Buffer±test compound.
6. Incubate microplate at room temperature, protected from light, for 30 min
7. At FLIPR-Tetra 384: Add stimulant (Thallium/Potassium) solution to microplate and monitor fluorescence. […]
The term IC50 denotes the concentration that gives 50% inhibition. For `CC1=C(N2CC3=C(CCN(C[C@H](O)c4ccc5c(c4C)COC5=O)CC3)C2=O)COC1=O` [Example 31, (R)-6-(2-Hydroxy-2-(4-methyl-1-oxo-1,3-dihydroisobenzofuran-5-yl)ethyl)-2-(4-methyl-5-oxo-2,5-dihydrofuran-3-yl)-2,3,5,6,7,8-hexahydropyrrolo[3,4-d]azepin-1(4H)-one], the IC50 is 64 nM.

On to `Cc1c(C(O)CN2CCc3c(cnn3-c3ccc4c(c3)COC4=O)C2)ccc2c1COC2=O` (centres unmarked) [Example 33, 5-{1-hydroxy-2-[1-(1-oxo-1,3-dihydro-2-benzofuran-5-yl)-1,4,6,7-tetrahydro-5H-pyrazolo[4,3-c]pyridin-5-yl]ethyl}-4-methyl-2-benzofuran-1(3H)-one], for which the IC50 amounted to 67 nM.

Consider `Cc1c(C(O)CN2CCn3cc(-c4ccc5c(c4)COC5=O)nc3C2)ccc2c1COC2=O` (centres unmarked) [Example 34, 5-{1-hydroxy-2-[2-(1-oxo-1,3-dihydro-2-benzofuran-5-yl)-5,6-dihydroimidazo[1,2-a]pyrazin-7(8H)-yl]ethyl}-4-methyl-2-benzofuran-1(3H)-one], for which the IC50 turned out to be 99.4 nM.

Consider `COc1cc(-c2cn3c(n2)CN(CC(O)c2ccc4c(c2C)COC4=O)CC3)ccc1C#N` (centres unmarked) [Example 35, 4-{7-[2-hydroxy-2-(4-methyl-1-oxo-1,3-dihydro-2-benzofuran-5-yl)ethyl]-5,6,7,8-tetrahydroimidazo[1,2-a]pyrazin-2-yl}-2-methoxybenzonitrile], for which the IC50 was found to be 154 nM.

As for `Cc1c(C(O)CN2CCn3c(nn(-c4ccc(C#N)c(F)c4)c3=O)C2)ccc2c1COC2=O` (centres unmarked) [Example 36, 2-fluoro-4-{7-[2-hydroxy-2-(4-methyl-1-oxo-1,3-dihydro-2-benzofuran-5-yl)ethyl]-3-oxo-5,6,7,8-tetrahydro[1,2,4]triazolo[4,3-a]pyrazin-2(3H)-yl}benzonitrile], the IC50 was determined as 163 nM.

Turning to `Cc1c(C(O)CN2CCn3c(nn(-c4ccc5c(c4)COC5=O)c3=O)C2)ccc2c1COC2=O` (centres unmarked) [Example 37, 7-[2-hydroxy-2-(4-methyl-1-oxo-1,3-dihydro-2-benzofuran-5-yl)ethyl]-2-(1-oxo-1,3-dihydro-2-benzofuran-5-yl)-5,6,7,8-tetrahydro[1,2,4]triazolo[4,3-a]pyrazin-3(2H)-one], the IC50 is 291 nM.

`Cc1c(C(O)CN2CCc3nc(-c4ccc(C#N)c(F)c4)ncc3C2)ccc2c1COC2=O` (centres unmarked) [Example 38, 2-fluoro-4-{6-[2-hydroxy-2-(4-methyl-1-oxo-1,3-dihydro-2-benzofuran-5-yl)ethyl]-5,6,7,8-tetrahydropyrido[4,3-d]pyrimidin-2-yl}benzonitrile]: the IC50 was 82 nM.

With `Cc1cc(C#N)ccc1-c1ncc2c(n1)CCN(CC(O)c1ccc3c(c1C)COC3=O)C2` (centres unmarked) [Example 39, 4-{6-[2-hydroxy-2-(4-methyl-1-oxo-1,3-dihydro-2-benzofuran-5-yl)ethyl]-5,6,7,8-tetrahydropyrido[4,3-d]pyrimidin-2-yl}-3-methylbenzonitrile], the IC50 was 337 nM.

For the molecule `Cc1c(C(O)CN2CCc3nc(-c4ccc(C#N)cn4)ncc3C2)ccc2c1COC2=O` (centres unmarked) [Example 40, 6-{6-[2-hydroxy-2-(4-methyl-1-oxo-1,3-dihydro-2-benzofuran-5-yl)ethyl]-5,6,7,8-tetrahydropyrido[4,3-d]pyrimidin-2-yl}pyridine-3-carbonitrile], the IC50 turned out to be 155 nM.

`Cc1c(C(O)CN2CCc3nc(-c4ccc(C#N)cc4F)ncc3C2)ccc2c1COC2=O` (centres unmarked) [Example 41, 3-fluoro-4-{6-[2-hydroxy-2-(4-methyl-1-oxo-1,3-dihydro-2-benzofuran-5-yl)ethyl]-5,6,7,8-tetrahydropyrido[4,3-d]pyrimidin-2-yl}benzonitrile]: the IC50 is 463 nM.

On to `Cc1c([C@@H](O)CN2CCc3c(-c4ccc(C#N)c(F)c4)n[nH]c3C2)ccc2c1COC2=O` [Example 42, 3-(4-cyano-3-fluorophenyl)-6-((R)-2-hydroxy-2-(4-methyl-1-oxo-1,3-dihydroisobenzofuran-5-yl)ethyl)-4,5,6,7-tetrahydro-1H-pyrazolo[3,4-c]pyridine], for which the IC50 was 173 nM.

Regarding `Cc1c([C@@H](O)CN2CCc3c(cnn3-c3ccc(C#N)cn3)C2)ccc2c1COC2=O` [Example 43, 6-{5-[(2R)-2-hydroxy-2-(4-methyl-1-oxo-1,3-dihydro-2-benzofuran-5-yl)ethyl]-4,5,6,7-tetrahydro-1H-pyrazolo[4,3-c]pyridin-1-yl}pyridine-3-carbonitrile], the IC50 was found to be 592 nM.

Regarding `Cc1c([C@@H](O)CN2CCn3c(-c4ccc5c(c4)C[C@H](C)OC5=O)cnc3C2)ccc2c1COC2=O` [Example 44, (3S)-6-{7-[(2R)-2-hydroxy-2-(4-methyl-1-oxo-1,3-dihydro-2-benzofuran-5-yl)ethyl]-5,6,7,8-tetrahydroimidazo[1,2-a]pyrazin-3-yl}-3-methyl-3,4-dihydro-1H-isochromen-1-one], the IC50 turned out to be 301 nM.

In the case of `Cc1cc(C#N)ccc1C1C[C@H]2CN(C[C@H](O)c3ccc4c(c3C)COC4=O)CCN2C1` (stereo partly drawn) [Example 45, 4-{(8aS)-2-[(2R)-2-hydroxy-2-(4-methyl-1-oxo-1,3-dihydro-2-benzofuran-5-yl)ethyl]octahydropyrrolo[1,2-a]pyrazin-7-yl}-3-methylbenzonitrile], the IC50 amounted to 131 nM.

For the molecule `Cc1c([C@@H](O)CN2CCN3CC(c4ccc5c(c4)C[C@@H](C)OC5=O)C[C@H]3C2)ccc2c1COC2=O` (stereo partly drawn) [Example 46, (3R)-6-{(8aS)-2-[(2R)-2-hydroxy-2-(4-methyl-1-oxo-1,3-dihydro-2-benzofuran-5-yl)ethyl]octahydropyrrolo[1,2-a]pyrazin-7-yl}-3-methyl-3,4-dihydro-1H-isochromen-1-one], the IC50 stood at 81.4 nM.

With `Cc1c([C@@H](O)CN2CCc3cc(-c4ccc5c(c4)C[C@H](C)OC5=O)ccc3C2)ccc2c1COC2=O` [Example 47, 2-[(2R)-2-hydroxy-2-(4-methyl-1-oxo-1,3-dihydro-2-benzofuran-5-yl)ethyl]-6-[(3S)-3-methyl-1-oxo-3,4-dihydro-1H-isochromen-6-yl]-1,2,3,4-tetrahydroisoquinoline], the IC50 is 249 nM.

The next experiment concerns the target T2, ROMK (Kir1.1) (Homo sapiens, UniProt P48048).
T2 sequence (P48048 1-391): T1 sequence (P48048 1-391)
The experiment is described as follows: 86Rb+ Efflux Assay, described in WO2013/062892 at pages 79-80. Type of experiment: cell-based. The note with it: values marked "(Rb)" in Table 10. An excerpt:
The data for Examples 2, 3, 4, 8, 9, 10, 15 and 32 were obtained using the ^86Rb^+ Efflux Assay, described in WO2013/062892 at pages 79-80.
`N#Cc1ccc(-c2ncc3c(n2)CCN(CCc2ccc4c(c2)COC4=O)C3)cc1` [Example 2, 4-{6-[2-(1-oxo-1,3-dihydro-2-benzofuran-5-yl)ethyl]-5,6,7,8-tetrahydropyrido[4,3-d]pyrimidin-2-yl}benzonitrile]: inhibition was half-maximal at 306 nM (IC50).
